Among the data in the NIST ThermoML archive (doi:10.1016/j.jct.2016.02.007) are mass density values, retold here.

The nature of data set [1]: wn = mass fraction of the nth substance listed. The following applies: 101.3 kPa, Liquid, Vibrating tube method, w2 = 0.
The conditions of data set [2]: 101.3 kPa, Liquid, Vibrating tube method.

± gives the expanded uncertainty stated by the source.

`O` [water] + CN(C)CCCO: the mass density (as a rule, mass per unit of volume) amounted to 992.3 ± 4.8 kg/m3 in data set [1] (313.15 K); 990.3 ± 4.8 kg/m3 in data set [1] (318.15 K); 988 ± 4.8 kg/m3 in data set [1] (323.15 K); 985.6 ± 4.8 kg/m3 in data set [1] (328.15 K); 983.3 ± 4.8 kg/m3 in data set [1] (333.15 K); 980.7 ± 4.8 kg/m3 in data set [1] (338.15 K). Moreover, the mass density in data set [1] (343.15 K) was determined as 977.9 ± 4.8 kg/m3.
On to `O` [water], for which the mass density in data set [2] (313.15 K) is 992.3 ± 1 kg/m3; in data set [2] (318.15 K), 990.3 ± 1 kg/m3; in data set [2] (323.15 K), 988 ± 1 kg/m3; in data set [2] (328.15 K), 985.6 ± 1 kg/m3; in data set [2] (333.15 K), 983.3 ± 1 kg/m3; in data set [2] (338.15 K), 980.7 ± 1 kg/m3. Further, the mass density in data set [2] (343.15 K) worked out at 977.9 ± 1 kg/m3.
On to `CN(C)CCCO` [3-dimethylamino-1-propanol], for which the mass density amounted to 886.7 ± 4.8 kg/m3 in data set [2] (293.15 K); 883 ± 4.8 kg/m3 in data set [2] (298.15 K); 879.1 ± 4.8 kg/m3 in data set [2] (303.15 K); 875.1 ± 4.8 kg/m3 in data set [2] (308.15 K); 871.2 ± 4.8 kg/m3 in data set [2] (313.15 K); 867.2 ± 4.8 kg/m3 in data set [2] (318.15 K). For the same molecule, the mass density in data set [2] (323.15 K) stood at 863.1 ± 4.8 kg/m3; in data set [2] (328.15 K) it was 859.1 ± 4.8 kg/m3; in data set [2] (333.15 K), 855 ± 4.8 kg/m3; in data set [2] (338.15 K) it was 850.8 ± 4.8 kg/m3; in data set [2] (343.15 K), 846.7 ± 4.8 kg/m3.
